As a reminder, the IC50 is the concentration that gives 50% inhibition. For orientation: ED50 means the dose that gives a 50% effect, or the effect in half of the subjects.

Counter-ions that a name gives are not always drawn.

Test [1] concerns mice with streptozotocin (STZ)-induced diabetic neuropathy. Put plainly: Analgesic action in mice with streptozotocin (STZ)-induced diabetic neuropathy, tail pinch test. Format: in vivo. The settings on record: male ICR mice, Day 15 after STZ, oral 30 mg/kg, 45 minutes prior to measurement, latency after minus before administration. How it is done: Representative compounds of Compound (I) of the present invention were assessed for the analgesic action in mice with streptozotocin (STZ)-induced diabetic neuropathy to confirm the effect on neuropathic pain. The assessment was performed by the method of Kamei et al. (Pharmacology Biochemistry & Behavior 39, 541-544, 1991) with some modifications.
Male ICR mice of 4 weeks old were intraperitoneally injected with 200 mg/kg weight of STZ to prepare mice with diabetic neuropathic pain. The analgesic action was assessed by the tail pinch test. […] On Day 14 following the STZ injection, a pretest was carried out to determine the response latency before the administration of a test compound. Only the animals showing not longer than 3 seconds of the response latency in the pretest were used for the test compound assessment on the following day (Day 15 after STZ injection).
In the test compound assessment, the response latency after the administration of a test compound was measured. The test compound was orally administered at a dose of 30 mg/kg, 45 minutes prior to the response latency measurement
The analgesic action of a test compound is expressed as prolongation of latency (in seconds) calculated by the formula: (response latency after administration of a test compound)−(response latency before administration of a test compound).

Another test concerns sodium channel. Put plainly: [14C] guanidine uptake induced by veratridine in rat cerebral cortex primary neurons (sodium channel inhibitory action). In kind it is cell-based. The settings on record: [14C] guanidine uptake induced by 100 μM veratridine, specific uptake = portion inhibited by 1 mM mexiletine, read-out: Na Channel Inhibition IC50. How it is done:
The [^14C] guanidine uptake experiment was performed by the method of Bonisch et al. (British Journal of Pharmacology 108, 436-442, 1993) with some modifications. The [^14C] guanidine was used as a sodium tracer, and the inhibitory activity on uptake of [^14C] guanidine induced by veratridine as a sodium channel activator into rat cerebral cortex primary neurons was measured.
Pregnant rats (Wistar, female, 19 days of gestation) were anesthetized with ether. The animals were bled to death by giving incision through the carotid artery. The fetuses were taken out of the pregnant rats and after ethanol sterilization, the cerebral cortex was removed from the fetuses. The cerebral cortex was digested with papain and dispersed in culture medium, followed by plating on a poly-L-lysine-coated 96-well white plate at a density of 2.5×10^5 cells/well. Incubation was performed in a CO2 incubator (37° C., 5% CO2) for 2 days.
After each well was washed once with an assay buffer (135 mM choline Cl, 5 mM KCl, 1 mM MgSO4, 5.5 mM glucose, 1 mg/mL BSA, 10 mM Hepes-Tris, pH 7.4), a fresh assay buffer was added to the well, followed by incubation at 25° C. for 10 minutes. Then, a reaction solution (a test compound, [^14C] guanidine and 100 μM, veratridine) was replaced for the buffer, followed by incubation at 25° C. for 15 minutes. The reaction was terminated by washing 3 times with a cold wash buffer (135 mM NaCl, 5 mM KCl, 1 mM MgSO4, 10 mM Hepes-Tris, pH 7.4). To each well, 17 μl of 0.1N NaOH was added. After agitation, 100 μl of scintillator was added to the well and further agitation was continued. The radioactivity was quantified by a liquid scintillation counter. In each experiment, the sodium channel-specific uptake of the whole uptake was designated as portion that was inhibited by 1 mM mexiletine. The action of the test compound on sodium channel is expressed as 50% inhibition concentration (IC50) based on the specific uptake.

In test [2] the test system is L5/L6 spinal nerve ligation rats. Kind of test: animal or person. The note with it: Rattus norvegicus, po, read-out: anti-allodynia ED50.
Experimental: The the assessment was performed by the method of Kim and Chung (Pain 50, 355-363, 1992) with some modifications.
Under pentobarbital anesthesia, male SD rats of 5 or 6 weeks old were given surgery to ligate both the left L5 and L6 lumbar nerves tightly with silk threads. For the assessment of analgesic action, the von Frey hair test was adopted. That is, the animal's hindpaw was picked with hair and the lowest strength of hair for limb withdrawal response was designated as a response threshold (log gram) to mechanical stimulation. […] On the day before the assessment of a test compound, the response threshold before administration of a test compound was measured. The animals were divided into 4 to 5 groups so that differences in the mean values of response thresholds before administration among the groups and variation within groups become small. In the assessment of a test compound, the response threshold after administration of the test compound was measured. The test compound was orally given 30 minutes before measurement of the response threshold. The anti-allodynia action potency of a test compound is expressed as ED50. In the calculation of the ED50, the thresholds of ipsilateral and contralateral paws in the solvent group were designated as 0% and 100%, respectively.

With `Cc1cccc(C)c1/C=C/C12CCN(CC1)CC2` [Example 24, 4-[(E)-2-(2,6-dimethylphenyl)vinyl]quinuclidine], in test [1], the “Anti-STZ-induced pain after oral administration: Latency prolongation” value (“Anti-STZ-induced pain” for short) worked out at 2.6 s. In the test with sodium channel, the IC50 amounted to 10 µM.
As for `Cc1cccc(Cl)c1/C=C/C1CCNCC1` [Example 37, 4-[(E)-2-(2-chloro-6-methylphenyl)vinyl]piperidine hydrochloride], the “Anti-STZ-induced pain” value in test [1] was 1.9 s. In addition, in the test on sodium channel, the IC50 turned out to be 10 µM.
In the same order, the values of `Cc1cccc(C)c1/C=C\C1CCNCC1` [Example 38, 4-[(Z)-2-(2,6-dimethylphenyl)vinyl]piperidine] are 3.1 s and 6 µM.
In the same order, the values of `Cc1cccc(C)c1/C=C/C1CCNCC1` [Example 39, 4-[(E)-2-(2,6-dimethylphenyl)vinyl]piperidine monohydrochloride] are 2.9 s and 16 µM.
For `Cc1cc(N(C)C)cc(C)c1/C=C/C1CCNCC1` [Example 53, N,N,3,5-tetramethyl-4-[(E)-2-piperidin-4-ylvinyl]aniline] the same measures were 4.2 s and 19 µM.
`Cc1cccc(C)c1/C=C/C1CCCCN1` (stereo not drawn) [Example 62, 2-[(E)-2-(2,6-dimethylphenyl)vinyl]piperidine monohydrochloride]: the “Anti-STZ-induced pain” value in test [1] is 2.3 s. Besides, in the test with sodium channel, the IC50 was found to be 9.2 µM.
For `Cc1cccc(C)c1/C=C/C1CCCNCC1` (stereo not drawn) [Example 63, 4-[(E)-2-(2,6-dimethylphenyl)vinyl]azepane] the same measures were 3.3 s and 10 µM.
Consider `Cc1cccc(C)c1/C=C/CC1CCNCC1` [Example 65, 4-[(2E)-3-(2,6-dimethylphenyl)prop-2-en-1-yl]piperidine], for which, in test [1], the “Anti-STZ-induced pain” value came to 2.3 s. Also, the IC50 with sodium channel worked out at 11 µM.
For `Cc1cccc(C)c1/C=C/C1CCCN(C)C1` (stereo not drawn) [Example 71, 3-[(E)-2-(2,6-dimethylphenyl)vinyl]-1-methylpiperidine], the “Anti-STZ-induced pain” value in test [1] amounted to 2.3 s. In addition, the half-maximal inhibitory concentration (IC50) in the test on sodium channel was determined as 7.7 µM.
For `Cc1cccc(C)c1/C=C/C1CCN(CCN(C)C)CC1` [Example 74, (2-{4-[(E)-2-(2,6-dimethylphenyl)vinyl]piperidin-1-yl}ethyl)dimethylamine] the same measures were 1.8 s and 7.2 µM.
In the case of `Cc1cccc(C)c1/C=C/C1CCN(C(=O)CN2CCCOCC2)CC1` [Example 189, 4-(2-{4-[(E)-2-(2,6-dimethylphenyl)vinyl]piperidin-1-yl}-2-oxoethyl)-1,4-oxazepane], the “Anti-STZ-induced pain” value in test [1] was found to be 2.4 s.
Take `Cc1cccc(C)c1/C=C/C1CCN(C(=O)CN2CCC(N)CC2)CC1` [Example 203, 1-(2-{4-[(E)-2-(2,6-dimethylphenyl)vinyl]piperidin-1-yl}-2-oxoethyl)piperidine-4-amine]: the “Anti-STZ-induced pain” value in test [1] worked out at 1.7 s.
Still for that read-out and setting: the result for `Cc1cccc(C)c1/C=C/C1CCN(C(=O)CN2CCNCC2)CC1` [Example 204, 1-(2-{4-[(E)-2-(2,6-dimethylphenyl)vinyl]piperidin-1-yl}-2-oxoethyl)piperazine] reads 2.4 s; that for `Cc1cccc(C)c1/C=C/C1CCN(C(=O)CN2C[C@H]3C[C@@H]2CN3)CC1` [Example 205, (1R,4R)-2-(2-{4-[(E)-2-(2,6-dimethylphenyl)vinyl]piperidin-1-yl}-2-oxoethyl)-2,5-diazabicyclo[2.2.1]heptane], 1.6 s.
For the compound `Cc1cccc(C)c1OCC(C)N` (stereo not drawn) [Mexiletine, reference compound], in test [2], the ED50 was approximately 70 mg/kg. For the same compound, in test [1], the “Anti-STZ-induced pain” value is “about 3 seconds”. The half-inhibitory concentration (IC50) in the test with sodium channel stood at 70 µM.

The values above are taken from US8044206B2, “Nitrogen—containing heterocyclic derivatives having 2,6-disubstituted styryl” (Astellas Pharma Inc., priority 2003, dated 2011).
